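Five compound concentrations were applied to cells in 96-well plates for 48 hours; endpoints were derived by simple linear interpolation of the resulting dose-response curve. Here, GI50 denotes the concentration required for 50% inhibition of growth. TGI: concentration producing complete growth inhibition.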
Assays:
Assay in all cases: NCI tumour cell line growth inhibition, 48 h; in the data active = GI50 below about 0.43 µM; inactive = the rest
786-0 renal = test system: 786-0 renal
A498 renal = test system: A498 renal
A549 NSCLC = test system: A549 NSCLC
ACHN renal = test system: ACHN renal
BT-549 breast = test system: BT-549 breast
CAKI-1 renal = test system: CAKI-1 renal
CCRF-CEM leukemia = test system: CCRF-CEM leukemia
COLO 205 colon = test system: COLO 205 colon
DU-145 prostate = test system: DU-145 prostate
HCC-2998 colon = test system: HCC-2998 colon
HCT-116 colon = test system: HCT-116 colon
HCT-15 colon = test system: HCT-15 colon
HL-60(TB) leukemia = test system: HL-60(TB) leukemia
HOP-62 NSCLC = test system: HOP-62 NSCLC
HOP-92 NSCLC = test system: HOP-92 NSCLC
HS 578T breast = test system: HS 578T breast
HT29 colon = test system: HT29 colon
IGROV1 ovarian = test system: IGROV1 ovarian
K-562 leukemia = test system: K-562 leukemia
KM12 colon = test system: KM12 colon
LOX IMVI melanoma = test system: LOX IMVI melanoma
M14 melanoma = test system: M14 melanoma
MALME-3M melanoma = test system: MALME-3M melanoma
MCF7 breast = test system: MCF7 breast
MDA-MB-231 breast = test system: MDA-MB-231 breast
MDA-MB-435 = test system: MDA-MB-435
MOLT-4 leukemia = test system: MOLT-4 leukemia
NCI-H226 lung = test system: NCI-H226 lung
NCI-H23 lung = test system: NCI-H23 lung
NCI-H460 lung = test system: NCI-H460 lung
NCI-H522 lung = test system: NCI-H522 lung
NCI/ADR-RES ovarian = test system: NCI/ADR-RES ovarian
OVCAR-3 ovarian = test system: OVCAR-3 ovarian
OVCAR-4 ovarian = test system: OVCAR-4 ovarian
OVCAR-5 ovarian = test system: OVCAR-5 ovarian
OVCAR-8 ovarian = test system: OVCAR-8 ovarian
PC-3 prostate = test system: PC-3 prostate
RPMI-8226 leukemia = test system: RPMI-8226 leukemia
RXF 393 renal = test system: RXF 393 renal
SF-268 CNS = test system: SF-268 CNS
SF-295 CNS = test system: SF-295 CNS
SF-539 CNS = test system: SF-539 CNS
SK-MEL-2 melanoma = test system: SK-MEL-2 melanoma
SK-MEL-28 melanoma = test system: SK-MEL-28 melanoma
SK-MEL-5 melanoma = test system: SK-MEL-5 melanoma
SK-OV-3 ovarian = test system: SK-OV-3 ovarian
SN12C renal = test system: SN12C renal
SNB-19 CNS = test system: SNB-19 CNS
SNB-75 CNS = test system: SNB-75 CNS
SR leukemia = test system: SR leukemia
SW-620 colon = test system: SW-620 colon
T-47D breast = test system: T-47D breast
TK-10 renal = test system: TK-10 renal
U251 CNS = test system: U251 CNS
UACC-257 melanoma = test system: UACC-257 melanoma
UACC-62 melanoma = test system: UACC-62 melanoma
UO-31 renal = test system: UO-31 renal

CCN(Cc1ccncc1)c1ccc(CO)c(Cl)c1
0.34 µM: TGI (TK-10 renal)
0.738 µM: TGI (UACC-257 melanoma)
inactive: GI50 (786-0 renal) > 57 µM | GI50 (A549 NSCLC) 8.48 µM | GI50 (ACHN renal) > 100 µM | GI50 (BT-549 breast) > 100 µM | GI50 (CAKI-1 renal) 61.6 µM | GI50 (CCRF-CEM leukemia) > 100 µM | GI50 (COLO 205 colon) 1.77 µM | GI50 (DU-145 prostate) > 100 µM | GI50 (HCC-2998 colon) 22 µM | GI50 (HCT-15 colon) > 100 µM | GI50 (HL-60(TB) leukemia) > 32 µM | GI50 (HOP-62 NSCLC) 5.03 µM | GI50 (HOP-92 NSCLC) 2.69 µM | GI50 (HS 578T breast) > 100 µM | GI50 (HT29 colon) 4.07 µM | GI50 (K-562 leukemia) 5.62 µM | GI50 (KM12 colon) > 100 µM | GI50 (LOX IMVI melanoma) > 100 µM | GI50 (M14 melanoma) > 100 µM | GI50 (MALME-3M melanoma) > 100 µM | GI50 (MCF7 breast) 0.589 µM | GI50 (MDA-MB-231 breast) > 100 µM | GI50 (MDA-MB-435) > 100 µM | GI50 (MOLT-4 leukemia) > 100 µM | GI50 (NCI-H23 lung) > 100 µM | GI50 (NCI-H460 lung) 0.638 µM | GI50 (NCI-H522 lung) > 100 µM | GI50 (NCI/ADR-RES ovarian) 81.1 µM | GI50 (OVCAR-3 ovarian) 1.14 µM | GI50 (OVCAR-4 ovarian) 0.548 µM | GI50 (OVCAR-8 ovarian) 96.9 µM | GI50 (PC-3 prostate) > 100 µM | GI50 (RPMI-8226 leukemia) 15.6 µM | GI50 (SF-268 CNS) > 100 µM | GI50 (SF-295 CNS) 0.951 µM | GI50 (SF-539 CNS) > 100 µM | GI50 (SK-MEL-2 melanoma) > 24.7 µM | GI50 (SK-MEL-28 melanoma) > 100 µM | GI50 (SK-MEL-5 melanoma) 23.8 µM | GI50 (SK-OV-3 ovarian) > 76.1 µM | GI50 (SN12C renal) > 100 µM | GI50 (SNB-19 CNS) > 100 µM | GI50 (SNB-75 CNS) > 77.8 µM | GI50 (SR leukemia) > 100 µM | GI50 (SW-620 colon) 3.74 µM | GI50 (U251 CNS) 4.22 µM | GI50 (UO-31 renal) 24.9 µM
> 56.3 µM: TGI (SF-295 CNS)
> 74.1 µM: TGI (HOP-92 NSCLC)
2.48 µM: TGI (IGROV1 ovarian)
6.34 µM: TGI (COLO 205 colon)
0.32 µM: TGI (NCI-H226 lung)
2.17 µM: TGI (UACC-62 melanoma)
0.584 µM: TGI (OVCAR-5 ovarian)
0.203 µM: TGI (A498 renal)
2.84 µM: TGI (T-47D breast)
active: GI50 (A498 renal) 0.0525 µM | GI50 (HCT-116 colon) 0.352 µM | GI50 (IGROV1 ovarian) 0.372 µM | GI50 (NCI-H226 lung) 0.127 µM | GI50 (OVCAR-5 ovarian) 0.152 µM | GI50 (T-47D breast) 0.367 µM | GI50 (TK-10 renal) 0.0945 µM | GI50 (UACC-257 melanoma) 0.237 µM | GI50 (UACC-62 melanoma) 0.333 µM
6.27 µM: TGI (OVCAR-4 ovarian)
> 100 µM: TGI (786-0 renal) | TGI (A549 NSCLC) | TGI (ACHN renal) | TGI (BT-549 breast) | TGI (CAKI-1 renal) | TGI (CCRF-CEM leukemia) | TGI (DU-145 prostate) | TGI (HCC-2998 colon) | TGI (HCT-116 colon) | TGI (HCT-15 colon) | TGI (HL-60(TB) leukemia) | TGI (HOP-62 NSCLC) | TGI (HS 578T breast) | TGI (HT29 colon) | TGI (K-562 leukemia) | TGI (KM12 colon) | TGI (LOX IMVI melanoma) | TGI (M14 melanoma) | TGI (MALME-3M melanoma) | TGI (MCF7 breast) | TGI (MDA-MB-231 breast) | TGI (MDA-MB-435) | TGI (MOLT-4 leukemia) | TGI (NCI-H23 lung) | TGI (NCI-H460 lung) | TGI (NCI-H522 lung) | TGI (NCI/ADR-RES ovarian) | TGI (OVCAR-8 ovarian) | TGI (PC-3 prostate) | TGI (RPMI-8226 leukemia) | TGI (RXF 393 renal) | TGI (SF-268 CNS) | TGI (SF-539 CNS) | TGI (SK-MEL-2 melanoma) | TGI (SK-MEL-28 melanoma) | TGI (SK-MEL-5 melanoma) | TGI (SK-OV-3 ovarian) | TGI (SN12C renal) | TGI (SNB-19 CNS) | TGI (SNB-75 CNS) | TGI (SR leukemia) | TGI (SW-620 colon) | TGI (U251 CNS) | TGI (UO-31 renal)
4.67 µM: TGI (OVCAR-3 ovarian)
